The record followed here is patent US12351559B2 (Biohaven Therapeutics Ltd., priority 2014, dated 2025).

For this assay, the target named is T1, Kv7.2/7.3 (Homo sapiens, UniProt O43525+O43526).
T1 construct: host or cells: HEK cells, tetracycline-inducible expression
Kind of assay: Kv7.2/7.3 activation assay, QPatch planar patch-clamp, single concentration screen. In kind it is cell-based. More on the design: key: <1.2-fold increase over baseline (−); +/−: as a range from <1.2-fold increase over baseline (−) up to >6-fold increase over baseline (+++); as a range from <1.2-fold increase over baseline (−) up to >6-fold increase over baseline (+++); as a range from <1.2-fold increase over baseline (−) up to >6-fold increase over baseline (+++); >6-fold increase over baseline (+++). Particulars: Kv7.2/Kv7.3 co-expressing HEK cells. A general note: Patch clamp records ionic current or voltage across a cell membrane.

[1] abbreviates: compound 3 μM, steady-state current at end of 2 s pulse to −30 mV.

`CC(C)(O)c1ccc2nc(NC(=O)C[C@](C)(O)c3ccccc3)n(C3CCC3)c2c1` [Example 84, (S)-N-(1-cyclobutyl-6-(2-hydroxypropan-2-yl)-1H-benzo[d]imidazol-2-yl)-3-hydroxy-3-phenylbutanamide]: the “Kv7.2/7.3 Activity: increase in current over baseline” value (from here on “Kv7.2/7.3 Activity: increase”) under setting [1] is “+”. `CC(C)(O)CC(=O)Nc1nc2ccc(C(C)(C)O)cc2n1C1CCC1` [Example 85, N-(1-cyclobutyl-6-(2-hydroxypropan-2-yl)-1H-benzo[d]imidazol-2-yl)-3-hydroxy-3-methylbutanamide]: the “Kv7.2/7.3 Activity: increase” value under setting [1] is on record as “+/−”. With `C[C@H](C(=O)Nc1nc2ccc(C(C)(C)O)cc2n1C1CCC1)C(C)(C)C` [Example 86, (S)-N-(1-cyclobutyl-6-(2-hydroxypropan-2-yl)-1H-benzo[d]imidazol-2-yl)-2,3,3-trimethylbutanamide], under setting [1], the “Kv7.2/7.3 Activity: increase” value was “+++ (>6-fold increase over baseline (+++))”. For the compound `CC(C)(O)c1ccc2nc(NC(=O)C3CC4(CCC4)C3)n(C3CCC3)c2c1` [Example 87, N-(1-cyclobutyl-6-(2-hydroxypropan-2-yl)-1H-benzo[d]imidazol-2-yl)spiro[3.3]heptane-2-carboxamide], the “Kv7.2/7.3 Activity: increase” value under setting [1] is recorded as “++”.

With `C[C@](O)(CC(=O)Nc1nc2ccc(C(F)(F)F)cc2n1C1CCC1)c1ccccc1` [Example 88, (S)-N-(1-cyclobutyl-6-(trifluoromethyl)-1H-benzo[d]imidazol-2-yl)-3-hydroxy-3-phenylbutanamide], the “Kv7.2/7.3 Activity: increase” value under setting [1] is given as “+”.

On to `CC(C)(O)c1ccc2nc(NC(=O)[C@@H]3CC3(C)C)n(C3CCC3)c2c1` [Example 89, (R)-N-(1-cyclobutyl-6-(2-hydroxypropan-2-yl)-1H-benzo[d]imidazol-2-yl)-2,2-dimethylcyclopropane-1-carboxamide], for which the “Kv7.2/7.3 Activity: increase” value under setting [1] is “++”. Still for that read-out and setting: as for `CC(C)(C)C(=O)Nc1nc2ccc(C(C)(C)O)cc2n1C1CCC1` [Example 90, N-(1-cyclobutyl-6-(2-hydroxypropan-2-yl)-1H-benzo[d]imidazol-2-yl)pivalamide], the entry is “+/−”.

`CC1(n2c(NC(=O)C[C@](C)(O)c3ccccc3)nc3ccc(C#N)cc32)CCC1` [Example 95, (S)-N-(6-cyano-1-(1-methylcyclobutyl)-1H-benzo[d]imidazol-2-yl)-3-hydroxy-3-phenylbutanamide]: under setting [1], the “Kv7.2/7.3 Activity: increase” value was “++”. `CC1(n2c(NC(=O)C[C@@](C)(O)c3ccccc3)nc3ccc(C#N)cc32)CCC1` [Example 96, (R)-N-(6-cyano-1-(1-methylcyclobutyl)-1H-benzo[d]imidazol-2-yl)-3-hydroxy-3-phenylbutanamide]: the “Kv7.2/7.3 Activity: increase” value under setting [1] is on record as “++”. As to `CC(C)(O)c1ccc2nc(NC(=O)CC(O)(C3CC3)C3CC3)n(C3CCC3)c2c1` [Example 97, N-(1-cyclobutyl-6-(2-hydroxypropan-2-yl)-1H-benzo[d]imidazol-2-yl)-3,3-dicyclopropyl-3-hydroxypropanamide], the “Kv7.2/7.3 Activity: increase” value under setting [1] is “+/−”. Turning to `O=C(CC(O)(C1CC1)C1CC1)Nc1nc2ccc(C(F)(F)F)cc2n1C1CCC1` [Example 98, N-(1-cyclobutyl-6-(trifluoromethyl)-1H-benzo[d]imidazol-2-yl)-3,3-dicyclopropyl-3-hydroxypropanamide], the “Kv7.2/7.3 Activity: increase” value under setting [1] is on record as “+”. For `C[C@](O)(CC(=O)Nc1nc2ccc(Cl)cc2n1C1CCC1)c1ccccc1` [Example 99, (S)-N-(6-chloro-1-cyclobutyl-1H-benzo[d]imidazol-2-yl)-3-hydroxy-3-phenylbutanamide], under setting [1], the “Kv7.2/7.3 Activity: increase” value is “+”. Still for that read-out and setting: as for `C[C@@](O)(CC(=O)Nc1nc2ccc(Cl)cc2n1C1CCC1)c1ccccc1` [Example 100, (R)-N-(6-chloro-1-cyclobutyl-1H-benzo[d]imidazol-2-yl)-3-hydroxy-3-phenylbutanamide], the entry is “+”; as for `CC(C)(O)c1ccc2nc(NC(=O)C3CC34CCC4)n(C3CCC3)c2c1` (centres unmarked) [Example 101, N-(1-cyclobutyl-6-(2-hydroxypropan-2-yl)-1H-benzo[d]imidazol-2-yl)spiro[2.3]hexane-1-carboxamide], “+”.

Take `CC(C)(O)c1ccc2nc(NC(=O)C3CCC(F)(F)C3)n(C3CCC3)c2c1` (centres unmarked) [Example 102, N-(1-cyclobutyl-6-(2-hydroxypropan-2-yl)-1H-benzo[d]imidazol-2-yl)-3,3-difluorocyclopentane-1-carboxamide]: the “Kv7.2/7.3 Activity: increase” value under setting [1] is reported as “+/−”.

For the compound `C[C@](O)(CC(=O)Nc1nc2ccc(Cl)cc2n1C1CCC1)c1ccc(F)cc1` [Example 103, (S)-N-(6-chloro-1-cyclobutyl-1H-benzo[d]imidazol-2-yl)-3-(4-fluorophenyl)-3-hydroxybutanamide], the “Kv7.2/7.3 Activity: increase” value under setting [1] is on record as “+”.

For the compound `CC(C)(C)CC(=O)Nc1nc2ccc(C(C)(C)O)cc2n1-c1ccc(F)cc1` [Example 104, N-(1-(4-fluorophenyl)-6-(2-hydroxypropan-2-yl)-1H-benzo[d]imidazol-2-yl)-3,3-dimethylbutanamide], under “compound @ 1 μM”, the “Kv7.2/7.3 Activity: increase” value is reported as “+(@ 1 μM)”.

Regarding `CC(C)(O)c1ccc2nc(NC(=O)C3CC34CC4)n(C3CCC3)c2c1` (centres unmarked) [Example 105, N-(1-cyclobutyl-6-(2-hydroxypropan-2-yl)-1H-benzo[d]imidazol-2-yl)spiro[2.2]pentane-1-carboxamide], under setting [1], the “Kv7.2/7.3 Activity: increase” value is recorded as “+”. Same read-out and setting: under `CCC(O)(CC)c1ccc2nc(NC(=O)C3CC34CC4)n(C3CCC3)c2c1` (centres unmarked) [Example 106, N-(1-cyclobutyl-6-(3-hydroxypentan-3-yl)-1H-benzo[d]imidazol-2-yl)spiro[2.2]pentane-1-carboxamide] stands “+/−”; under `C[C@](O)(CC(=O)Nc1nc2ccc(Cl)cc2n1-c1ccc(F)cc1)c1ccccc1` [Example 107, (S)-N-(6-chloro-1-(4-fluorophenyl)-1H-benzo[d]imidazol-2-yl)-3-hydroxy-3-phenylbutanamide], “+”. Regarding `C[C@@](O)(CC(=O)Nc1nc2ccc(Cl)cc2n1-c1ccc(F)cc1)c1ccccc1` [Example 108, (R)-N-(6-chloro-1-(4-fluorophenyl)-1H-benzo[d]imidazol-2-yl)-3-hydroxy-3-phenylbutanamide], the “Kv7.2/7.3 Activity: increase” value under setting [1] is reported as “+/−”. Still for that read-out and setting: under `CC(C)(O)c1ccc2nc(NC(=O)C3CC34CC4)n(-c3ccc(F)cc3)c2c1` (centres unmarked) [Example 109, N-(1-(4-fluorophenyl)-6-(2-hydroxypropan-2-yl)-1H-benzo[d]imidazol-2-yl)spiro[2.2]pentane-1-carboxamide] stands “+”.

In the case of `CCOC(=O)Cc1ccc2nc(NC(=O)CC(C)(C)C)n(C3CCC3)c2c1F` [Example 110, ethyl 2-(1-cyclobutyl-2-(3,3-dimethylbutanamido)-7-fluoro-1H-benzo[d]imidazol-6-yl)acetate], under setting [1], the “Kv7.2/7.3 Activity: increase” value was “+”. Regarding `CCOC(=O)Cc1ccc2nc(NC(=O)[C@H]3CC3(C)C)n(C3CCC3)c2c1F` [Example 111, ethyl (S)-2-(1-cyclobutyl-2-(2,2-dimethylcyclopropane-1-carboxamido)-7-fluoro-1H-benzo[d]imidazol-6-yl)acetate], the “Kv7.2/7.3 Activity: increase” value under setting [1] is reported as “+”.

For the compound `CCOC(=O)Cc1ccc2nc(NC(=O)CC(C)(C)C)n(-c3ccc(F)cc3)c2c1F` [Example 112, ethyl 2-(2-(3,3-dimethylbutanamido)-7-fluoro-1-(4-fluorophenyl)-1H-benzo[d]imidazol-6-yl)acetate], under setting [1], the “Kv7.2/7.3 Activity: increase” value is on record as “++”. Take `CC(C)(O)Cc1ccc2nc(NC(=O)[C@H]3CC3(C)C)n(C3CCC3)c2c1F` [Example 113, (S)-N-(1-cyclobutyl-7-fluoro-6-(2-hydroxy-2-methylpropyl)-1H-benzo[d]imidazol-2-yl)-2,2-dimethylcyclopropane-1-carboxamide]: the “Kv7.2/7.3 Activity: increase” value under setting [1] is listed as “+”. With `CC(C)(C)CC(=O)Nc1nc2ccc(CC(C)(C)O)c(F)c2n1C1CCC1` [Example 114, N-(1-cyclobutyl-7-fluoro-6-(2-hydroxy-2-methylpropyl)-1H-benzo[d]imidazol-2-yl)-3,3-dimethylbutanamide], the “Kv7.2/7.3 Activity: increase” value under setting [1] is “+”. As to `CC(C)(O)Cc1ccc2nc(NC(=O)[C@H]3CC3(C)C)n(-c3ccc(F)cc3)c2c1F` [Example 115, (S)-N-(7-fluoro-1-(4-fluorophenyl)-6-(2-hydroxy-2-methylpropyl)-1H-benzo[d]imidazol-2-yl)-2,2-dimethylcyclopropane-1-carboxamide], the “Kv7.2/7.3 Activity: increase” value under setting [1] is reported as “+”. Turning to `CC(C)(C)CC(=O)Nc1nc2ccc(CC(C)(C)O)c(F)c2n1-c1ccc(F)cc1` [Example 116, N-(7-fluoro-1-(4-fluorophenyl)-6-(2-hydroxy-2-methylpropyl)-1H-benzo[d]imidazol-2-yl)-3,3-dimethylbutanamide], the “Kv7.2/7.3 Activity: increase” value under setting [1] is “+”. As for `CC(C)(C)CC(=O)Nc1nc2ccc(CC(=O)O)c(F)c2n1C1CCC1` [Example 117, 2-(1-cyclobutyl-2-(3,3-dimethylbutanamido)-7-fluoro-1H-benzo[d]imidazol-6-yl)acetic acid], the “Kv7.2/7.3 Activity: increase” value under setting [1] is “+/−”. Still for that read-out and setting: as for `CN(C)C(=O)Cc1ccc2nc(NC(=O)CC(C)(C)C)n(C3CCC3)c2c1F` [Example 118, N-(1-cyclobutyl-6-(2-(dimethylamino)-2-oxoethyl)-7-fluoro-1H-benzo[d]imidazol-2-yl)-3,3-dimethylbutanamide], the entry is “+”; as for `Cc1cc2nc(NC(=O)C[C@](C)(O)c3ccccc3)n(C(C)(C)C)c2cc1C#N` [Example 119, (S)-N-(1-(tert-butyl)-6-cyano-5-methyl-1H-benzo[d]imidazol-2-yl)-3-hydroxy-3-phenylbutanamide], “+/−”.
